Data published in paper PMC11945657, “Microwave-Assisted Synthesis of Morpholine-Based Chalcones as Reversible MAO-A Inhibitors in the Management of Mental Depression” (Pharmaceuticals, 2025).
“And” between values parts separate entries of the source, which are not always exact repeats. Equal entries are not always repeated. Where two headings read alike, the source gives them in different places.

Assays:
[1] = DPPH free radical scavenging antioxidant assay
Experimental: H2O2 produced during metabolic events in the brain may be crucial for signaling and metabolic functions. The compounds were screened to check their potential to inhibit ROS through the DPPH assay. […] However, further studies are required to confirm this effect.
The DPPH approach, which gauges the free radical scavenging activity, was used to evaluate the antioxidant properties of the compounds. The test was performed according to the literature method. The stock solution of DPPH (0.5 mM) was prepared, and methanol was used to create each dilution. The different concentrations (10, 25, 50, 75, and 100 μM) of the test compounds (C1–C15) were prepared and compared with the standard ascorbic acid. The percentage antioxidant activity of the compounds was calculated using the following formula: % Antioxidant activity = [(Aabsorbance − Atest)/Aabsorbance] × 100.

hMAO-B = target: T1, hMAO-B (Homo sapiens, UniProt P27338); assay: MAO inhibition assay (Amplex Red, fluorimetric), MAO-B
T1 sequence (P27338 1-520): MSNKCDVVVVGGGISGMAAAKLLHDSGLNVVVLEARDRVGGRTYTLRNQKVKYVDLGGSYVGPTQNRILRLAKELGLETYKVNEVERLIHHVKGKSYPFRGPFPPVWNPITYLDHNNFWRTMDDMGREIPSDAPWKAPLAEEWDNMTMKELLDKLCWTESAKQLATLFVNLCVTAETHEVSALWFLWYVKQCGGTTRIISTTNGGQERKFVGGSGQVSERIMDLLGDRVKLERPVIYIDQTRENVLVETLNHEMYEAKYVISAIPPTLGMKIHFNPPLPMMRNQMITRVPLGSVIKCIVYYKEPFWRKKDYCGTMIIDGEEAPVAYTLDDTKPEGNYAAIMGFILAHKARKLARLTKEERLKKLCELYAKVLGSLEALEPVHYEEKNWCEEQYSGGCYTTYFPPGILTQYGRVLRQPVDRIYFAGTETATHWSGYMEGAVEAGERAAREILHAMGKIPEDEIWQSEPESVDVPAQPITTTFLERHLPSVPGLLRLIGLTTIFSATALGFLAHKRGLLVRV

hMAO-A = target: T2, hMAO-A (Homo sapiens, UniProt P21397); assay: MAO inhibition assay (Amplex Red, fluorimetric), MAO-A
T2 sequence (P21397 1-527): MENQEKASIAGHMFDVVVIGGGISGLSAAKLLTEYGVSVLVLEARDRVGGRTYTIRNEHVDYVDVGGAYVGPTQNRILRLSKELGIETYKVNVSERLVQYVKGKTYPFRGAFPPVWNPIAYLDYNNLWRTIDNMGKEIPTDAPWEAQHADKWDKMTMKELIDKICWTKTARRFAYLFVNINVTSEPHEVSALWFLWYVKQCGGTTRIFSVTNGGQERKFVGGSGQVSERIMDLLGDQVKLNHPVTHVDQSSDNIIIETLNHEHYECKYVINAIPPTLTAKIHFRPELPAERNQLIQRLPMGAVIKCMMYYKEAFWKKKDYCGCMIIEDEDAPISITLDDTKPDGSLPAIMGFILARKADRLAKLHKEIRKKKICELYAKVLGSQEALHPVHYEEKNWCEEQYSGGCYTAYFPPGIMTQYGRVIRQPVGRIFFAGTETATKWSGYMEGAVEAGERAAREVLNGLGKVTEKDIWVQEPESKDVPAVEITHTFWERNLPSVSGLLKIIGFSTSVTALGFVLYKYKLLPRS

[2] = read-out: Percentage Inhibition at 20 μM MAO-B
[3] = read-out: Percentage Inhibition at 20 μM MAO-A
[4] = read-out: IC50 Values MAO-A, class symbol, IC50 not calculated
[5] = read-out: Percentage Inhibition at 20 μM MAO-A, 20 μM

Structure (SMILES)	inhibition at 20 µM (hMAO-B; read-out: IC50 Values MAO-B) [%]	inhibition at 20 µM (hMAO-B; [2]) [%]	inhibition at 20 µM (hMAO-A; [4]) [%]	inhibition at 20 µM (hMAO-A; [5]) [%]	IC50 (hMAO-A) [µM]	Percentage Inhibition at 20 μM MAO-A (hMAO-A; 20 μM) [%]	% Antioxidant Activity ([1]; 10 µM) [%]	% Antioxidant Activity ([1]; 25 µM) [%]	% Antioxidant Activity ([1]; 50 µM) [%]	% Antioxidant Activity ([1]; 75 µM)	% Antioxidant Activity ([1]; 100 µM)	inhibition at 20 µM (hMAO-A; read-out: IC50 Values MAO-A) [%]	inhibition at 20 µM (hMAO-A; [3]) [%]	% Antioxidant Activity ([1]; 100 µM, listed as ascorbic acid) [%]
O=C(/C=C/c1ccc(Br)cc1)c1ccc(N2CCOCC2)cc1 [Compound C1, (E)-3-(4-Bromophenyl)-1-(4-morpholinophenyl)prop-2-en-1-one]	< 50	6.59					9.24	21.80	35.78	50% and 53.13%	50% and 54.82%	< 50	13.6	
O=C(/C=C/c1ccc(Cl)cc1)c1ccc(N2CCOCC2)cc1 [Compound C7, (E)-3-(4-Chlorophenyl)-1-(4-morpholinophenyl)prop-2-en-1-one]	< 50	7.43					13.81	15.62	32.06	50% and 52.12%	50% and 53.37%	< 50	21.4	
O=C(/C=C/c1ccccc1Cl)c1ccc(N2CCOCC2)cc1 [Compound C12, (E)-3-(2-Chlorophenyl)-1-(4-morpholinophenyl)prop-2-en-1-one]	< 50	23.9		67.7	9.35 ± 0.11	67.76	3.03	19.54	40.88	44.56%	35.95%			
C#CCN(C)CCCOc1ccc(Cl)cc1Cl [Clorgyline, clorgyline, reference compound]													95	
Cc1ccccc1/C=C/C(=O)c1ccc(N2CCOCC2)cc1 [Compound C15, (E)-1-(4-Morpholinophenyl)-3-(o-tolyl)prop-2-en-1-one]	< 50	25.7		6.17			6.51	30.71	41.06	32.50%	29.17%			
CCc1ccc(/C=C/C(=O)c2ccc(N3CCOCC3)cc2)cc1 [Compound C13, (E)-3-(4-Ethylphenyl)-1-(4-morpholinophenyl)prop-2-en-1-one]	< 50	17.5					2.54	15.55	41.40	22.18%	66.87%		7.25	
C#CCN(C)Cc1ccccc1 [Pargyline, pargyline, reference compound]		99											< 50	
O=C1O[C@H]([C@@H](O)CO)C(O)=C1O [Ascorbic acid, ascorbic acid, reference compound]							8.03	20.27	40.23	46.33%	58.53%			50
COc1ccc(/C=C/C(=O)c2ccc(N3CCOCC3)cc2)cc1OC [Compound C4, (E)-3-(3,4-Dimethoxyphenyl)-1-(4-morpholinophenyl)prop-2-en-1-one]	< 50	5.56	< 50	15.8			16.37	32.47	41.07	33.69%	50% and 52.62%			
Cc1ccc(/C=C/C(=O)c2ccc(N3CCOCC3)cc2)cc1 [Compound C9, (E)-1-(4-Morpholinophenyl)-3-(p-tolyl)prop-2-en-1-one]	< 50	6.77					8.65	23.43	35.75	39.19%	44.66%	< 50	4.95	

The next lines start with results.

inhibition at 20 µM (hMAO-B; read-out: IC50 Values MAO-B) [%]	inhibition at 20 µM (hMAO-B; [2]) [%]	inhibition at 20 µM (hMAO-A; [4]) [%]	inhibition at 20 µM (hMAO-A; [5]) [%]	IC50 (hMAO-A) [µM]	Percentage Inhibition at 20 μM MAO-A (hMAO-A; 20 μM) [%]	Structure (SMILES)	% Antioxidant Activity ([1]; 10 µM) [%]	% Antioxidant Activity ([1]; 25 µM) [%]	% Antioxidant Activity ([1]; 50 µM) [%]	% Antioxidant Activity ([1]; 75 µM)	% Antioxidant Activity ([1]; 100 µM)	inhibition at 20 µM (hMAO-A; read-out: IC50 Values MAO-A) [%]	inhibition at 20 µM (hMAO-A; [3]) [%]	% Antioxidant Activity ([1]; 100 µM, listed as ascorbic acid) [%]
< 50	6.54	< 50	36.8			O=C(/C=C/c1ccc(Br)c(F)c1)c1ccc(N2CCOCC2)cc1 [Compound C5, (E)-3-(4-Bromo-3-fluorophenyl)-1-(4-morpholinophenyl)prop-2-en-1-one]	19.11	23.41	38.15	49.88%	50% and 50.95%			
< 50	7.11	< 50	37.7			O=C(/C=C/c1ccc(F)cc1)c1ccc(N2CCOCC2)cc1 [Compound C3, (E)-3-(4-Fluorophenyl)-1-(4-morpholinophenyl)prop-2-en-1-one]	14.58	38.25	40.31	50% and 53.10%	56.87%			
< 50	6.32	< 50	3.11			Cc1cccc(/C=C/C(=O)c2ccc(N3CCOCC3)cc2)c1 [Compound C8, (E)-1-(4-Morpholinophenyl)-3-(m-tolyl)prop-2-en-1-one]	16.56	31.47	36.01	49.24%	66.42%			
< 50	12.4	< 50	33.9			O=C(/C=C/c1cccc(F)c1)c1ccc(N2CCOCC2)cc1 [Compound C10, (E)-3-(3-Fluorophenyl)-1-(4-morpholinophenyl)prop-2-en-1-one]	17.09	21.05	34.56	42.27%	32.62%			
< 50	18.6	< 50	21.1			COc1ccccc1/C=C/C(=O)c1ccc(N2CCOCC2)cc1 [Compound C11, (E)-3-(2-Methoxyphenyl)-1-(4-morpholinophenyl)prop-2-en-1-one]	13.89	16.00	40.26	27.09%	36.45%			
< 50	4.74	< 50	19.4			O=C(/C=C/c1ccc(Cl)c(Cl)c1)c1ccc(N2CCOCC2)cc1 [Compound C2, (E)-3-(3,4-Dichlorophenyl)-1-(4-morpholinophenyl)prop-2-en-1-one]	6.63	25.78	37.18	50% and 50.91%	50% and 53.12%			
